# Measurements from patent publication US20200131156A1, “ARYLSULFONYLPYROLECARBOXAMIDE DERIVATIVES AS Kv3 POTASSIUM CHANNEL ACTIVATORS” (H. Lundbeck A/S, priority 2018, published 2020).
# Target: T1, hKv3.1b (Homo sapiens, UniProt P48547)
# T1 construct: expressed in transfected cells
# T1 sequence (P48547 1-585 isoform P48547-2): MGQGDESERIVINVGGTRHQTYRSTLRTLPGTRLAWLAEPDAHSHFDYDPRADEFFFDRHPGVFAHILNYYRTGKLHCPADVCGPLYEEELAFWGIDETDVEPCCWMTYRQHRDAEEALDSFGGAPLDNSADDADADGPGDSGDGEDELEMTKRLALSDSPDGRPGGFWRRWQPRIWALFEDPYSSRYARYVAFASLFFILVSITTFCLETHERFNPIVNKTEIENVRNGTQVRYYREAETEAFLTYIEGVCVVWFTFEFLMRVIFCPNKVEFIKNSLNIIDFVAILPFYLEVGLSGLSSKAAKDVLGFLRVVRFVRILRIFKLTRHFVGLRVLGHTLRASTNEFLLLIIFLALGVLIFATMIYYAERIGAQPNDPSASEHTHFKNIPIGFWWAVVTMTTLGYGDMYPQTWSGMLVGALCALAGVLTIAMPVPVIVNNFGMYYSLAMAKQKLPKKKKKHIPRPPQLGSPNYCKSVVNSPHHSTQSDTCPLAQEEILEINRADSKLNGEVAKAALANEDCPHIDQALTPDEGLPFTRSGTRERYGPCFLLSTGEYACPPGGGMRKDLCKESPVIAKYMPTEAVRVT
# Test: Automated patch clamp (QPatch-16x) on HEK-293 cells stably expressing hKv3.1b
# Format: cell-based
# Settings: for ECdelta5 mV: concentration needed to shift the activation threshold 5 mV; for Threshold Shift: maximum absolute hyperpolarizing shift of activation threshold at tested concentrations 0.37-30 μM
# Experimental: HEK-293 cells stably expressing hKv3.1b were used for the experiments. Cells were cultured in DMEM medium supplemented with 10% Fetal Bovine Serum, 100 ug/mL Geneticidin and 100 u/mL Penicillin/Streptomycin (all from Gibco). Cells were grown to 80-90% confluency at 37° C. and 5% CO2. On the day of the experiment the cells were detached from the tissue culture flasks by Detachin, resuspended in serum free medium containing 25 mM HEPES and transferred to the cell hotel of the QPatch. The cells were used for experiments 0-5 hours after detachment.
# Patch-clamp recordings were performed using the automated recording system QPatch-16x (Sophion Bioscience, Denmark). Cells were centrifuged, SFM removed and the cells were resuspended in extracellular buffer containing (in mM): 145 NaCl, 4 KCl, 1 MgCl2, 2 CaCl2, 10 HEPES and 10 glucose (added fresh on the day of experiment); pH 7.4 adjusted with NaOH, 305 mOsm adjusted with sucrose.
# Single cell whole-cell recordings were carried out using an intracellular solution containing (in mM): 120 KCl, 32.25/10 KOH/EGTA, 5.374 CaCl2, 1.75 MgCl2, 10 HEPES, 4 Na2ATP (added fresh on the day), pH 7.2 adjusted with KOH, […] adjusted with sucrose. Cell membrane potentials were held at −80 mV and currents were evoked by voltage steps (200 ms duration) from −70 mV to +10 mV (in 10 mV increments). Vehicle (0.33% DMSO) or increasing concentration of compound (I) were applied and the voltage protocol was run 3 times (resulting in 3 min cpd incubation time). Five increasing concentrations of compound (I) were applied to each cell.
# Leak subtraction protocol was applied at −33% of the sweep amplitude, and serial resistance values were constantly monitored.
# Any cell where serial resistance exceeded 25 MOhm, membrane resistance less than 200 MOhm or current size at −10 mV less than 200 pA was eliminated from the subsequent analysis.
# Data analysis was performed using Sophion's QPatch assay software in combination with Microsoft Excel™ (Redmond, Wash., USA). Current voltage relationships were plotted from the peak current at the individual voltage steps normalized to the vehicle addition at 10 mV. The voltage threshold for channel activation was defined as 5% activation of the peak current at 10 mV in presence of vehicle. The activity of the compounds was described as the ability to shift this current voltage relationship to more hyperpolarized potentials and is given as the maximum absolute shift possible at the tested concentrations (0.37, 1.11, 3.33, 10, 30 μM). Concentration response curves were plotted from the threshold shift at the individual concentrations and were fitted excel fit model 205 sigmoidal dose-response model (fit=A+((B−A)/1+((C/x)^D)))), where A is the minimum value, B the maximum value, C the EC50 value and D the slope of the curve. The concentration needed to shift the threshold 5 mV was readout from this curve (ECdelta5 mV).
SMILES,ECdelta5 mV [nM],Threshold Shift [mV]
"Cc1ccc(S(=O)(=O)n2ccc(C(=O)NCc3ncc(C)cn3)c2)cc1 [Compound 1, N-[(5-methylpyrimidin-2-yl)methyl]-1-(p-tolylsulfonyl)pyrrole-3-carboxamide]",1600,27
"Cc1ccc(S(=O)(=O)n2ccc(C(=O)NCc3cnc(C)nc3)c2)cc1 [Compound 2, N-[(2-methylpyrimidin-5-yl)methyl]-1-(p-tolylsulfonyl)pyrrole-3-carboxamide]",750,40
"Cc1ccc(S(=O)(=O)n2ccc(C(=O)NCc3ccc(C)nn3)c2)cc1 [Compound 3, N-[(6-methylpyridazin-3-yl)methyl]-1-(p-tolylsulfonyl)pyrrole-3-carboxamide]",1100,25
"Cc1cnc(CNC(=O)c2ccn(S(=O)(=O)c3ccccc3F)c2)cn1 [Compound 4, 1-(2-fluorophenyl)sulfonyl-N-[(5-methylpyrazin-2-yl)methyl]pyrrole-3-carboxamide]",3100,17
"Cc1cnc(CNC(=O)c2ccn(S(=O)(=O)c3cccc(F)c3)c2)cn1 [Compound 5, 1-(3-fluorophenyl)sulfonyl-N-[(5-methylpyrazin-2-yl)methyl]pyrrole-3-carboxamide]",7800,10
"Cc1cnc(CNC(=O)c2ccn(S(=O)(=O)c3ccc(F)cc3)c2)cn1 [Compound 6, 1-(4-fluorophenyl)sulfonyl-N-[(5-methylpyrazin-2-yl)methyl]pyrrole-3-carboxamide]",2300,24
"COc1ccc(S(=O)(=O)n2ccc(C(=O)NCc3cnc(C)cn3)c2)cc1 [Compound 7, 1-(4-methoxyphenyl)sulfonyl-N-[(5-methylpyrazin-2-yl)methyl]pyrrole-3-carboxamide]",1300,33
"Cc1ccc(S(=O)(=O)n2cc(C)c(C(=O)NCc3cnc(C)cn3)c2)cc1 [Compound 8, 4-methyl-N-[(5-methylpyrazin-2-yl)methyl]-1-(p-tolylsulfonyl)pyrrole-3-carboxamide]",4000,12
"Cc1ccc(S(=O)(=O)n2ccc(C(=O)NCc3ccccn3)c2)cc1 [Compound 9, 1-(p-tolylsulfonyl)-N-(2-pyridylmethyl) pyrrole-3-carboxamide]",2400,15
"COc1cccnc1CNC(=O)c1ccn(S(=O)(=O)c2ccc(C)cc2)c1 [Compound 10, N-[(3-methoxy-2-pyridyl)methyl]-1-(p-tolylsulfonyl)pyrrole-3-carboxamide]",3600,10
"Cc1ccc(S(=O)(=O)n2ccc(C(=O)NCc3ncccc3F)c2)cc1 [Compound 11, N-[(3-fluoro-2-pyridyl)methyl]-1-(p-tolylsulfonyl) pyrrole-3-carboxamide]",1300,16
"Cc1ccc(S(=O)(=O)n2ccc(C(=O)NCc3cc(F)ccn3)c2)cc1 [Compound 12, N-[(4-fluoro-2-pyridyl)methyl]-1-(p-tolylsulfonyl) pyrrole-3-carboxamide]",1700,16
"Cc1ccc(S(=O)(=O)n2ccc(C(=O)NCc3ccc(F)cn3)c2)cc1 [Compound 13, N-[(5-fluoro-2-pyridyl)methyl]-1-(p-tolylsulfonyl) pyrrole-3-carboxamide]",1700,13
"Cc1ccc(S(=O)(=O)n2ccc(C(=O)NCc3cccnc3)c2)cc1 [Compound 14, 1-(p-tolylsulfonyl)-N-(3-pyridylmethyl) pyrrole-3-carboxamide]",1500,23
"Cc1ccc(S(=O)(=O)n2ccc(C(=O)NCc3cccc(C)n3)c2)cc1 [Compound 15, N-[(6-methyl-2-pyridyl)methyl]-1-(p-tolylsulfonyl)pyrrole-3-carboxamide]",1700,14
